Measured values as given in US9540393B2, “Inhibitors of human immunodeficiency virus replication” (priority 2013, dated 2017).
Like-named read-outs stand apart in the source and are kept apart here.

What was measured:
[1] = rcm bond, DCE
NL-RLuc virus = assay: Inhibition of HIV replication (NL-RLuc luciferase reporter virus in MT-2 cells); format: cell-based, human immunodeficiency virus (HIV); conditions: recombinant NL-Rluc virus infecting MT-2 cells, 5 days of incubation, luciferase readout; at least 2 experiments; serum condition not given (10% FBS, 15 mg/ml human serum albumin/10% FBS or 40% human serum/5% FBS)

## CCOC(=O)[C@@H](OC(C)(C)C)c1c(C)nc2cc3nn2c1N1CCC(C)(CC1)OCCCCOc1ccccc1CC(=O)CNC3=O
[1]; from C=CCOc1ccccc1CC(O)CNC(=O)c1cc2nc(C)c([C@H](OC(C)(C)C)C(=O)OCC)c(N3CCC(C)(OCC=C)CC3)n2n1, Hoveyda-Grubbs 2nd generation, 7.4 mM, 70.0 °C, 2.0 h, 3 steps
  ring closure, yield of all isomers: 43.1%

## Cc1nc2cc3nn2c(c1[C@H](OC(C)(C)C)C(=O)O)-c1ccc2c(c1Cl)N(CC=CCCc1ccccc1CNC3=O)CCO2
[1]; from C=CCCc1ccccc1CNC(=O)c1cc2nc(C)c([C@H](OC(C)(C)C)C(=O)OCC)c(-c3ccc4c(c3Cl)N(CC=C)CCO4)n2n1, Hoveyda-Grubbs II, 32.0 mM, 83.0 °C, 3.0 h, 2 steps
  ring closure, yield of all isomers: 14.8%

## Cc1nc2cc3nn2c(c1[C@H](OC(C)(C)C)C(=O)O)-c1ccc2c(c1Cl)N(CC=CCOc1cc(F)ccc1CNC3=O)CCO2
[1]; from C=CCOc1cc(F)ccc1CNC(=O)c1cc2nc(C)c([C@H](OC(C)(C)C)C(=O)OCC)c(-c3ccc4c(c3Cl)N(CC=C)CCO4)n2n1, Hoveyda-Grubbs II, 57.0 mM, 83.0 °C, 3.0 h, 2 steps
  ring closure, yield of all isomers: 30.5%

## Cc1nc2cc3nn2c(c1[C@H](OC(C)(C)C)C(=O)O)-c1ccccc1C=CCOc1cc(F)ccc1CNC3=O
[1]; from C=CCOc1cc(F)ccc1CNC(=O)c1cc2nc(C)c([C@H](OC(C)(C)C)C(=O)OCC)c(-c3ccccc3C=C)n2n1, Hoveyda-Grubbs II, 37.0 mM, 83.0 °C, 16.0 h, 2 steps
  ring closure, yield of all isomers: 5%

## Cc1nc2cc3nn2c(c1[C@H](OC(C)(C)C)C(=O)O)N1CCC(C)(CC1)OCCCCOc1ccccc1CC(O)CNC3=O (some centres unmarked)
[1]; from C=CCOc1ccccc1CC(O)CNC(=O)c1cc2nc(C)c([C@H](OC(C)(C)C)C(=O)OCC)c(N3CCC(C)(OCC=C)CC3)n2n1, Hoveyda-Grubbs 2nd generation, 6.0 mM, 70.0 °C, 2.0 h, 3 steps
  ring closure, yield of all isomers: 51.1%

## Cc1nc2cc3nn2c(c1[C@H](OC(C)(C)C)C(=O)O)-c1ccc2c(c1Cl)N(C/C=C/COc1cc(F)ccc1CNC3=O)CCO2 (single isomer, unassigned) [Example 2]
NL-RLuc virus
  EC50: 31 nM

## Cc1nc2cc3nn2c(c1[C@H](OC(C)(C)C)C(=O)O)-c1ccc2c(c1Cl)N(CC/C=C\Oc1cc(F)ccc1CNC3=O)CCO2 (single isomer, unassigned) [Example 3]
NL-RLuc virus
  EC50: 42 nM

## Cc1nc2cc3nn2c(c1[C@H](OC(C)(C)C)C(=O)O)-c1ccc2c(c1Cl)N(C/C=C/COc1cc(F)ccc1CNC3=O)CCO2 (single isomer, unassigned) [Example 4]
NL-RLuc virus
  EC50: 1460 nM

## Cc1nc2cc3nn2c(c1[C@H](OC(C)(C)C)C(=O)O)-c1ccc2c(c1Cl)N(CC/C=C\Oc1cc(F)ccc1CNC3=O)CCO2 (single isomer, unassigned) [Example 5]
NL-RLuc virus
  EC50: 12100 nM

## Cc1nc2cc3nn2c(c1[C@H](OC(C)(C)C)C(=O)O)N1CCC(C)(CC1)OCCCCOc1ccccc1CC(O)CNC3=O (single isomer, unassigned) [Example 21]
NL-RLuc virus
  EC50: 136 nM

## Cc1nc2cc3nn2c(c1[C@H](OC(C)(C)C)C(=O)O)N1CCC(C)(CC1)OCCCCOc1ccccc1CC(O)CNC3=O (single isomer, unassigned) [Example 22]
NL-RLuc virus
  EC50: 57 nM
